Test results: ChEMBL document CHEMBL1201861, “Genomics of Drug Sensitity in Cancer screening data, Wellcome Trust Sanger Institute”

Tests used:
DG-75 = test: cells; type: functional, cell-based, Homo sapiens; details: Homo sapiens, DG-75;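 further: growth inhibition of DG-75 cells, read out with a cell viability assay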
Description: SANGER: Inhibition of human DG-75 cell growth in a cell viability assay.

DMS-153 = test: cells; type: functional, cell-based, Homo sapiens; details: Homo sapiens, DMS-153
Description: SANGER: Inhibition of human DMS-153 cell growth in a cell viability assay.

DMS-273 = test: cells; type: functional, cell-based; details: Homo sapiens
Description: SANGER: Inhibition of human DMS-273 cell growth in a cell viability assay.

DOK = test: cells; type: functional, cell-based; details: Homo sapiens;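 further: cell viability assay read-out, values reflect inhibition of cell growth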
Description: SANGER: Inhibition of human DOK cell growth in a cell viability assay.

DoTc2-4510 = test: cells; type: functional, cell-based; details: Homo sapiens
EC-GI-10 = test: cells; type: functional, cell-based, Homo sapiens; details: Homo sapiens, EC-GI-10
Description: SANGER: Inhibition of human EC-GI-10 cell growth in a cell viability assay.

EFO-27 = test: cells; type: functional, cell-based; details: Homo sapiens;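 further: growth inhibition of EFO-27 cells, read out with a cell viability assay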
Description: SANGER: Inhibition of human EFO-27 cell growth in a cell viability assay.

EVSA-T = test: cells; type: functional, cell-based, Homo sapiens; details: Homo sapiens, EVSA-T;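 further: growth inhibition of EVSA-T cells, read out with a cell viability assay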
Description: SANGER: Inhibition of human EVSA-T cell growth in a cell viability assay.

G-361 = test: cells; type: functional, cell-based; details: Homo sapiens
G-402 = test: cells; type: functional, cell-based; details: Homo sapiens
Description: SANGER: Inhibition of human G-402 cell growth in a cell viability assay.

HCC1419 = test: cells; type: functional, cell-based; details: Homo sapiens;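 further: growth inhibition of human HCC1419 cells, read out as cell viability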
Description: SANGER: Inhibition of human HCC1419 cell growth in a cell viability assay.

HCC38 = test: cells; type: functional, cell-based; details: Homo sapiens;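 further: cell viability assay on the human HCC38 cell line, with IC50 marking the concentration that inhibits cell growth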
Description: SANGER: Inhibition of human HCC38 cell growth in a cell viability assay.

HCT-116 = test: cells; type: functional, cell-based; details: Homo sapiens
Description: SANGER: Inhibition of human HCT-116 cell growth in a cell viability assay.

HOS = test: cells; type: functional, cell-based; details: Homo sapiens;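 further: growth inhibition of human HOS cells, read out with a cell viability assay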
Description: SANGER: Inhibition of human HOS cell growth in a cell viability assay.

HT-1376 = test: cells; type: functional, cell-based; details: Homo sapiens
Description: SANGER: Inhibition of human HT-1376 cell growth in a cell viability assay.

HuO-3N1 = test: cells; type: functional, cell-based; details: Homo sapiens;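 further: cell viability readout used to measure how strongly compounds suppress proliferation of human HuO-3N1 cells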
Description: SANGER: Inhibition of human HuO-3N1 cell growth in a cell viability assay.

IGROV-1 = test: cells; type: functional, cell-based; details: Homo sapiens;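 further: reduction of IGROV-1 cell growth, read out with a viability assay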
Description: SANGER: Inhibition of human IGROV-1 cell growth in a cell viability assay.

JIYOYE = test: cells; type: functional, cell-based, Homo sapiens; details: Homo sapiens, JIYOYE
Description: SANGER: Inhibition of human JiyoyeP-2003 cell growth in a cell viability assay.

LB373-MEL-D = test: cells; type: functional, cell-based, Homo sapiens; details: Homo sapiens, LB373-MEL-D;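 further: growth inhibition of the cell line, read out in a cell viability assay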
Description: SANGER: Inhibition of human LB373-MEL-D cell growth in a cell viability assay.

MC-IXC = test: cells; type: functional, cell-based; details: Homo sapiens;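 further: growth inhibition of MC-IXC cells, read out with a cell viability assay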
Description: SANGER: Inhibition of human MC-IXC cell growth in a cell viability assay.

MDA-MB-453 = test: cells; type: functional, cell-based; details: Homo sapiens
Description: SANGER: Inhibition of human MDA-MB-453 cell growth in a cell viability assay.

MKN-7 = test: cells; type: functional, cell-based; details: Homo sapiens;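 further: growth inhibition of MKN-7 cells, read out with a cell viability assay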
Description: SANGER: Inhibition of human MKN7 cell growth in a cell viability assay.

NB1 = test: cells; type: functional, cell-based, Homo sapiens; details: Homo sapiens, NB1;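 further: reduction of NB1 cell proliferation, read out with a viability assay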
Description: SANGER: Inhibition of human NB1 cell growth in a cell viability assay.

NCI-H1522 = test: cells; type: functional, cell-based, Homo sapiens; details: Homo sapiens, NCI-H1522;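 further: growth inhibition of NCI-H1522 cells, read out with a cell viability assay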
Description: SANGER: Inhibition of human NCI-H1522 cell growth in a cell viability assay.

NCI-H2052 = test: cells; type: functional, cell-based; details: Homo sapiens;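 further: growth inhibition of NCI-H2052 cells, read out with a cell viability assay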
Description: SANGER: Inhibition of human NCI-H2052 cell growth in a cell viability assay.

NCI-H2171 = test: cells; type: functional, cell-based, Homo sapiens; details: Homo sapiens, NCI-H2171;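 further: growth inhibition of human NCI-H2171 cells, read out by a cell viability assay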
Description: SANGER: Inhibition of human NCI-H2171 cell growth in a cell viability assay.

NCI-H2405 = test: cells; type: functional, cell-based; details: Homo sapiens;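 further: growth inhibition of the human cell line, read out with a cell viability assay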
Description: SANGER: Inhibition of human NCI-H2405 cell growth in a cell viability assay.

NCI-H2452 = test: cells; type: functional, cell-based; details: Homo sapiens;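 further: growth inhibition of NCI-H2452 cells, read out with a cell viability assay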
Description: SANGER: Inhibition of human NCI-H2452 cell growth in a cell viability assay.

NCI-H28 = test: cells; type: functional, cell-based; details: Homo sapiens;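 further: growth inhibition of human NCI-H28 cells, read out as cell viability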
Description: SANGER: Inhibition of human NCI-H28 cell growth in a cell viability assay.

NCI-H441 = test: cells; type: functional, cell-based; details: Homo sapiens;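 further: growth inhibition of NCI-H441 cells, read out with a cell viability assay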
Description: SANGER: Inhibition of human NCI-H441 cell growth in a cell viability assay.

NCI-H510A = test: cells; type: functional, cell-based, Homo sapiens; details: Homo sapiens, NCI-H510A;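 further: growth inhibition of NCI-H510A cells, read out with a cell viability assay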
Description: SANGER: Inhibition of human NCI-H510A cell growth in a cell viability assay.

NCI-H596 = test: cells; type: functional, cell-based; details: Homo sapiens;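 further: growth inhibition of NCI-H596 cells, read out with a cell viability assay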
Description: SANGER: Inhibition of human NCI-H596 cell growth in a cell viability assay.

NCI-H630 = test: cells; type: functional, cell-based; details: Homo sapiens;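 further: growth inhibition of NCI-H630 cells, read out with a cell viability assay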
Description: SANGER: Inhibition of human NCI-H630 cell growth in a cell viability assay.

NCI-H719 = test: cells; type: functional, cell-based, Homo sapiens; details: Homo sapiens, NCI-H719;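 further: growth inhibition of the cultured cell line, read out with a viability assay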
Description: SANGER: Inhibition of human NCI-H719 cell growth in a cell viability assay.

OAW-28 = test: cells; type: functional, cell-based; details: Homo sapiens;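 further: growth inhibition of OAW-28 cells, read out with a cell viability assay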
Description: SANGER: Inhibition of human OAW-28 cell growth in a cell viability assay.

OAW-42 = test: cells; type: functional, cell-based; details: Homo sapiens;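 further: growth inhibition of OAW-42 cells, read out with a cell viability assay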
Description: SANGER: Inhibition of human OAW-42 cell growth in a cell viability assay.

REH = test: cells; type: functional, cell-based, Homo sapiens; details: Homo sapiens, REH;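 further: growth inhibition of REH cells determined with a cell viability read-out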
Description: SANGER: Inhibition of human REH cell growth in a cell viability assay.

RPMI-6666 = test: cells; type: functional, cell-based, Homo sapiens; details: Homo sapiens, RPMI-6666
Description: SANGER: Inhibition of human RPMI-6666 cell growth in a cell viability assay.

RPMI-7951 = test: cells; type: functional, cell-based; details: Homo sapiens
Description: SANGER: Inhibition of human RPMI-7951 cell growth in a cell viability assay.

RPMI 8402 = test: SANGER: Inhibition of human RPMI-8402 cell growth in a cell viability assay.; type: functional, cell-based; details: Homo sapiens, RPMI 8402
SCC-9 = test: cells; type: functional, cell-based; details: Homo sapiens;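 further: Read-out is a cell viability assay, with values giving inhibition of cell growth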
Description: SANGER: Inhibition of human SCC-9 cell growth in a cell viability assay.

SK-OV-3 = test: cells; type: functional, cell-based; details: Homo sapiens;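 further: growth inhibition of SK-OV-3 human cells, read out with a cell viability assay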
Description: SANGER: Inhibition of human SK-OV-3 cell growth in a cell viability assay.

SN12C = test: cells; type: functional, cell-based; details: Homo sapiens;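 further: growth inhibition of human SN12C cells, measured by a cell viability assay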
Description: SANGER: Inhibition of human SN12C cell growth in a cell viability assay.

SR = test: cells; type: functional, cell-based, Homo sapiens; details: Homo sapiens, SR
Description: SANGER: Inhibition of human SR cell growth in a cell viability assay.

SU-DHL-1 = test: SANGER: Inhibition of human SU-DHL-1 cell growth in a cell viability assay.; type: functional, cell-based; details: Homo sapiens, SU-DHL-1
SUP-T1 = test: cells; type: functional, cell-based, Homo sapiens; details: Homo sapiens, SUP-T1;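 further: growth inhibition of human SUP-T1 cells, read out as cell viability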
Description: SANGER: Inhibition of human SUP-T1 cell growth in a cell viability assay.

SW1463 = test: cells; type: functional, cell-based; details: Homo sapiens;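 further: growth inhibition of SW1463 cells, determined with a cell viability assay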
Description: SANGER: Inhibition of human SW1463 cell growth in a cell viability assay.

SiHa = test: cells; type: functional, cell-based; details: Homo sapiens;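 further: Viability-based readout of growth inhibition in SiHa cells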
Description: SANGER: Inhibition of human SiHa cell growth in a cell viability assay.

TALL-1 = test: cells; type: functional, cell-based, Homo sapiens; details: Homo sapiens, TALL-1;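 further: growth inhibition of cultured human TALL-1 cells, read out by a cell viability assay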
Description: SANGER: Inhibition of human TALL-1 cell growth in a cell viability assay.

A204 = test: cells; type: functional, cell-based; details: Homo sapiens;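 further: growth inhibition of human A204 cells, read out with a cell viability assay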
Description: SANGER: Inhibition of human A204 cell growth in a cell viability assay.

AU565 = test: cells; type: functional, cell-based; details: Homo sapiens;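 further: cell viability assay measuring growth inhibition of human AU565 cells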
Description: SANGER: Inhibition of human AU565 cell growth in a cell viability assay.

BCPAP = test: cells; type: functional, cell-based; details: Homo sapiens;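 further: growth inhibition of BCPAP cells, read out in a cell viability assay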
Description: SANGER: Inhibition of human BCPAP cell growth in a cell viability assay.

BHY = test: cells; type: functional, cell-based; details: Homo sapiens;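 further: cell growth inhibition read out by a viability assay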
Description: SANGER: Inhibition of human BHY cell growth in a cell viability assay.

BT-20 = test: cells; type: functional, cell-based; details: Homo sapiens;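 further: cell viability assay measuring suppression of growth in human BT-20 cells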
Description: SANGER: Inhibition of human BT-20 cell growth in a cell viability assay.

C-33-A = test: cells; type: functional, cell-based; details: Homo sapiens;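 further: cell viability assay measuring growth inhibition of C-33-A cells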
Description: SANGER: Inhibition of human C-33-A cell growth in a cell viability assay.

C32 = test: cells; type: functional, cell-based; details: Homo sapiens;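 further: cell viability assay, with IC50 reflecting inhibition of C32 cell growth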
Description: SANGER: Inhibition of human C32 cell growth in a cell viability assay.

CAL-39 = test: cells; type: functional, cell-based; details: Homo sapiens;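 further: cell viability assay measuring growth inhibition of CAL-39 cells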
Description: SANGER: Inhibition of human CAL-39 cell growth in a cell viability assay.

UMC-11 = test: cells; type: functional, cell-based; details: Homo sapiens;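 further: growth inhibition of UMC-11 cells, read out with a cell viability assay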
Description: SANGER: Inhibition of human UMC-11 cell growth in a cell viability assay.

Measured: IC50

COC(=O)[C@H](CCSC)NC(=O)c1ccc(NC[C@@H](N)CS)cc1-c1ccccc1
> 1020 nM: all assays above
